Laboratory results published in ChEMBL document CHEMBL1155406, “Synthesis and chain-dependent antifungal activity of long-chain 2H-azirine-carboxylate esters related to dysidazirine” (Bioorg Med Chem Lett, 2010).
Calls of active or inactive are those of the source. The calls are words filed in the database; no cut-off is given here.

What was measured:
[1] = system: Nakaseomyces glabratus; experiment: Antifungal activity against Candida glabrata by broth microdilution method; type: functional
[2] = system: Candida albicans; experiment: Antifungal activity against fluconazole-resistant Candida albicans UCD-FRI at 64 ug by broth microdilution method; type: functional, organism-based
[3] = system: Candida albicans; experiment: Antifungal activity against Candida albicans ATCC 14503 at 64 ug by broth microdilution method; type: functional, organism-based
[4] = system: Candida albicans; experiment: Antifungal activity against fluconazole-resistant Candida albicans 96-489 at 64 ug by broth microdilution method; type: functional, organism-based
[5] = system: Nakaseomyces glabratus; experiment: Antifungal activity against Candida glabrata at 64 ug by broth microdilution method; type: functional, organism-based
[6] = system: Pichia kudriavzevii; experiment: Antifungal activity against fluconazole-resistant Candida krusei at 64 ug by broth microdilution method; type: functional, organism-based
[7] = system: Cryptococcus neoformans; experiment: Antifungal activity against Cryptococcus neoformans var. grubii at 64 ug by broth microdilution method; type: functional, organism-based
[8] = system: Cryptococcus gattii; experiment: Antifungal activity against Cryptococcus neoformans var. gatti at 64 ug by broth microdilution method; type: functional, organism-based; details: Cryptococcus bacillisporus
[9] = system: HCT-116; experiment: Cytotoxicity against human HCT116 cells; type: cell-based
[10] = system: Candida albicans; experiment: Antifungal activity against fluconazole-resistant Candida albicans UCD-FRI by broth microdilution method; type: functional, organism-based
[11] = system: Candida albicans; experiment: Antifungal activity against Candida albicans ATCC 14503 by broth microdilution method; type: functional, organism-based
[12] = system: Candida albicans; experiment: Antifungal activity against fluconazole-resistant Candida albicans 96-489 by broth microdilution method; type: functional, organism-based
[13] = system: Pichia kudriavzevii; experiment: Antifungal activity against fluconazole-resistant Candida krusei by broth microdilution method; type: functional, organism-based
[14] = system: Cryptococcus neoformans; experiment: Antifungal activity against Cryptococcus neoformans var. grubii by broth microdilution method; type: functional, organism-based
[15] = system: Cryptococcus gattii; experiment: Antifungal activity against Cryptococcus neoformans var. gatti by broth microdilution method; type: functional, organism-based; details: Cryptococcus bacillisporus

**Q.** For `CCCCCCCCCCCCC/C=C/[C@@H](O)[C@@H](N)CO` [SPHINGOSINE], which Activity [1] is on record?
**A.** 30 µg/mL

**Q.** `COC(=O)[C@H]1N=C1/C=C/CCCCCCCCCC=C(Cl)Cl` was tested. Which Activity [2] did it give?
**A.** inactive

**Q.** What about the Activity [3] of the same compound?
**A.** inactive

**Q.** And the Activity [4]?
**A.** inactive

**Q.** What about the Activity [5] of the same compound?
**A.** inactive

**Q.** And the Activity [6]?
**A.** inactive

**Q.** What about the Activity [7] of the same compound?
**A.** inactive

**Q.** And the Activity [8]?
**A.** inactive

**Q.** What about the Activity [9] of the same compound?
**A.** Active

**Q.** How did the Activity [2] turn out when `COC(=O)[C@H]1N=C1/C=C/CCCCCCCCCC=C(Br)Br` was run?
**A.** inactive

**Q.** What about the Activity [3] of the same compound?
**A.** inactive

**Q.** What about the Activity [4] of the same compound?
**A.** inactive

**Q.** What about the Activity [5] of the same compound?
**A.** inactive

**Q.** And the Activity [6]?
**A.** inactive

**Q.** And the Activity [7]?
**A.** inactive

**Q.** What about the Activity [8] of the same compound?
**A.** inactive

**Q.** What about the Activity [9] of the same compound?
**A.** Active

**Q.** Which results are given for `COC(=O)[C@H]1N=C1/C=C/CCCCCCCCC/C=C(/Cl)Br`?
**A.** Activity [2]: inactive; Activity [3]: inactive; Activity [4]: inactive; Activity [5]: inactive; Activity [6]: inactive; Activity [7]: inactive; Activity [8]: inactive; Activity [9]: Active

**Q.** With `CCCCCCCCCC/C=C\C1=N[C@H]1C(=O)OC` as the compound, how does the Activity [10] read?
**A.** Active

**Q.** What about the Activity [11] of the same compound?
**A.** Active

**Q.** And the Activity [12]?
**A.** Active

**Q.** What about the Activity [1] of the same compound?
**A.** Active

**Q.** And the Activity [13]?
**A.** Active

**Q.** What about the Activity [14] of the same compound?
**A.** Active

**Q.** What about the Activity [15] of the same compound?
**A.** Active

**Q.** How did the Activity [2] turn out when `COC(=O)[C@H]1N=C1/C=C\CCCCCCCCC/C=C(/Cl)Br` was run?
**A.** inactive

**Q.** And the Activity [3]?
**A.** inactive

**Q.** And the Activity [4]?
**A.** inactive

**Q.** And the Activity [5]?
**A.** inactive

**Q.** What about the Activity [6] of the same compound?
**A.** inactive

**Q.** What about the Activity [7] of the same compound?
**A.** inactive

**Q.** And the Activity [8]?
**A.** inactive

**Q.** And the Activity [9]?
**A.** Active

**Q.** With `CCCCCCCCCCCCCCCC1=N[C@H]1C(=O)OC` as the compound, how does the Activity [2] read?
**A.** inactive

**Q.** What about the Activity [3] of the same compound?
**A.** inactive

**Q.** What about the Activity [4] of the same compound?
**A.** inactive

**Q.** And the Activity [5]?
**A.** inactive

**Q.** And the Activity [6]?
**A.** inactive

**Q.** And the Activity [7]?
**A.** inactive

**Q.** And the Activity [8]?
**A.** inactive

**Q.** With `COC(=O)[C@H]1N=C1/C=C\CCCCCCCCCC=C(Br)Br` as the compound, how does the Activity [2] read?
**A.** inactive

**Q.** What about the Activity [3] of the same compound?
**A.** inactive

**Q.** And the Activity [4]?
**A.** inactive

**Q.** And the Activity [5]?
**A.** inactive

**Q.** And the Activity [6]?
**A.** inactive

**Q.** What about the Activity [7] of the same compound?
**A.** inactive

**Q.** And the Activity [8]?
**A.** inactive

**Q.** And the Activity [9]?
**A.** Active

**Q.** Which Activity [10] does the source give for `CCCCCCCCCCCCCC#CC1=N[C@H]1C(=O)OC` here?
**A.** Active

**Q.** What about the Activity [11] of the same compound?
**A.** Active

**Q.** What about the Activity [12] of the same compound?
**A.** Active

**Q.** And the Activity [1]?
**A.** Active

**Q.** What about the Activity [13] of the same compound?
**A.** Active

**Q.** What about the Activity [14] of the same compound?
**A.** Active

**Q.** And the Activity [15]?
**A.** Active

**Q.** How did the Activity [2] turn out when `COC(=O)[C@@H]1N=C1/C=C\CCCCCCCCCCCC(C)(C)C` was run?
**A.** inactive

**Q.** And the Activity [3]?
**A.** inactive

**Q.** What about the Activity [4] of the same compound?
**A.** inactive

**Q.** What about the Activity [5] of the same compound?
**A.** inactive

**Q.** And the Activity [6]?
**A.** inactive

**Q.** And the Activity [7]?
**A.** inactive

**Q.** And the Activity [8]?
**A.** inactive

**Q.** With `CCCCC/C=C\C1=N[C@H]1C(=O)OC` as the compound, how does the Activity [10] read?
**A.** inactive
